Results taken from patent publication US12662465B2, “EGFR inhibitors” (Blueprint Medicines Corporation, priority 2021, dated 2026).

Experiments:
[1] = biological target: T1, EGFR L858R (Homo sapiens, UniProt P00533, L858R); assay: Biochemical EGFR inhibition assay (Caliper mobility shift), EGFR L858R; details: read-out: Enz EGFR_L858R IC50
T1 construct: purchased SignalChem E10-122BG

[2] = biological target: T2, EGFR (d746-750) (Homo sapiens, UniProt P00533, DEL746-750); assay: Biochemical EGFR inhibition assay (Caliper mobility shift), EGFR (d746-750); details: read-out: Enz EGFR_Exon19-del746-750 IC50
T2 construct: purchased SignalChem E10-122JG

[3] = biological target: intracellular phosphorylation of EGFR (Tyr1068) in PC-9 cells (Ex19Del) (Homo sapiens, UniProt P00533, DEL746-750); assay: PC-9 pEGFR AlphaLISA assay; format: cell-based; details: 4 hours compound incubation, read-out: Ext pEGFR_PC-9 Ex19Del IC50
intracellular phosphorylation of EGFR (Tyr1068) in PC-9 cells (Ex19Del), sequence (P00533 with tags, fused parts or gaps DEL746-750): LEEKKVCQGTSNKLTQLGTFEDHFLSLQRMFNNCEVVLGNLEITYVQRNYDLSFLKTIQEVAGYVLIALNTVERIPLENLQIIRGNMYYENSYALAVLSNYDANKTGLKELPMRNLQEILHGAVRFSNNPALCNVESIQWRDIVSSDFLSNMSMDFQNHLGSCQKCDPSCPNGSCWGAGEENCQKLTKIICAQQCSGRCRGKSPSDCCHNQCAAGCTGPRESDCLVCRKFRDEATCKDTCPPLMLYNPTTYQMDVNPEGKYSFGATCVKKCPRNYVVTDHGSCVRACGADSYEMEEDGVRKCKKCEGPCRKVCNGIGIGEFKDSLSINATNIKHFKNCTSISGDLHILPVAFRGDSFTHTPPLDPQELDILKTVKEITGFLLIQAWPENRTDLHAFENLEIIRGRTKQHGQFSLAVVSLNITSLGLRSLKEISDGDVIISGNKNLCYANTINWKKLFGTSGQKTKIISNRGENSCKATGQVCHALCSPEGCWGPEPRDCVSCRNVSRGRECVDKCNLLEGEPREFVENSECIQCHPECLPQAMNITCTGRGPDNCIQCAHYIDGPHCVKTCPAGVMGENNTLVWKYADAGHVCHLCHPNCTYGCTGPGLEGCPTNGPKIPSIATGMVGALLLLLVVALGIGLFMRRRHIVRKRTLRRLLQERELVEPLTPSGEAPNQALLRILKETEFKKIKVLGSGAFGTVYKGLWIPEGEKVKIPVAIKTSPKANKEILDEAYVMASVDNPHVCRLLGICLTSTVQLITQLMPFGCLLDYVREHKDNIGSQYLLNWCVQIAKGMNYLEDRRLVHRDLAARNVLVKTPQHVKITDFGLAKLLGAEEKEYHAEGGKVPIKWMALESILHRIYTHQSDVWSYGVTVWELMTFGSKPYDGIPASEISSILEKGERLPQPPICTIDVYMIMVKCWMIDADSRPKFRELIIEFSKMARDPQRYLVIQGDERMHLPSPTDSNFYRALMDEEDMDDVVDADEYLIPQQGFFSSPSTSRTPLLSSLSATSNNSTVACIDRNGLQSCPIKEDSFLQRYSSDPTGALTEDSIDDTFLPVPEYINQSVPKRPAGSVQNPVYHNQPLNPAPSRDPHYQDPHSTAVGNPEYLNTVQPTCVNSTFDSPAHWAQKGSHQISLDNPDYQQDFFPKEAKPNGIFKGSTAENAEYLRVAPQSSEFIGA

T2 sequence (P00533 with tags, fused parts or gaps DEL746-750 limits assumed): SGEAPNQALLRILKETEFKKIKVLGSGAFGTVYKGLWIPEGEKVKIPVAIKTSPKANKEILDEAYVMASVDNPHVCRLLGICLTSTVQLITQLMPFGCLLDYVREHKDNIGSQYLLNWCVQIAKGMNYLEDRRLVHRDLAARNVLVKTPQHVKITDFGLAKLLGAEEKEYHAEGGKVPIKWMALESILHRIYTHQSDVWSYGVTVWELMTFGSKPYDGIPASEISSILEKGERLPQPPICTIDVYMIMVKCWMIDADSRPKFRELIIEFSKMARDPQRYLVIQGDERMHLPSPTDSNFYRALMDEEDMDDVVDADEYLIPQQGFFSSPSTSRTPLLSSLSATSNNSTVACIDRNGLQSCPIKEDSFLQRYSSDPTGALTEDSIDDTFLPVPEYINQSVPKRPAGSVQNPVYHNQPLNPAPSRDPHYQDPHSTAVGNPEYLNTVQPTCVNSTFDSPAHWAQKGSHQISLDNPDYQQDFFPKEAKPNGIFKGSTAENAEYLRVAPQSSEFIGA
T1 sequence (P00533 25-1210 L858R): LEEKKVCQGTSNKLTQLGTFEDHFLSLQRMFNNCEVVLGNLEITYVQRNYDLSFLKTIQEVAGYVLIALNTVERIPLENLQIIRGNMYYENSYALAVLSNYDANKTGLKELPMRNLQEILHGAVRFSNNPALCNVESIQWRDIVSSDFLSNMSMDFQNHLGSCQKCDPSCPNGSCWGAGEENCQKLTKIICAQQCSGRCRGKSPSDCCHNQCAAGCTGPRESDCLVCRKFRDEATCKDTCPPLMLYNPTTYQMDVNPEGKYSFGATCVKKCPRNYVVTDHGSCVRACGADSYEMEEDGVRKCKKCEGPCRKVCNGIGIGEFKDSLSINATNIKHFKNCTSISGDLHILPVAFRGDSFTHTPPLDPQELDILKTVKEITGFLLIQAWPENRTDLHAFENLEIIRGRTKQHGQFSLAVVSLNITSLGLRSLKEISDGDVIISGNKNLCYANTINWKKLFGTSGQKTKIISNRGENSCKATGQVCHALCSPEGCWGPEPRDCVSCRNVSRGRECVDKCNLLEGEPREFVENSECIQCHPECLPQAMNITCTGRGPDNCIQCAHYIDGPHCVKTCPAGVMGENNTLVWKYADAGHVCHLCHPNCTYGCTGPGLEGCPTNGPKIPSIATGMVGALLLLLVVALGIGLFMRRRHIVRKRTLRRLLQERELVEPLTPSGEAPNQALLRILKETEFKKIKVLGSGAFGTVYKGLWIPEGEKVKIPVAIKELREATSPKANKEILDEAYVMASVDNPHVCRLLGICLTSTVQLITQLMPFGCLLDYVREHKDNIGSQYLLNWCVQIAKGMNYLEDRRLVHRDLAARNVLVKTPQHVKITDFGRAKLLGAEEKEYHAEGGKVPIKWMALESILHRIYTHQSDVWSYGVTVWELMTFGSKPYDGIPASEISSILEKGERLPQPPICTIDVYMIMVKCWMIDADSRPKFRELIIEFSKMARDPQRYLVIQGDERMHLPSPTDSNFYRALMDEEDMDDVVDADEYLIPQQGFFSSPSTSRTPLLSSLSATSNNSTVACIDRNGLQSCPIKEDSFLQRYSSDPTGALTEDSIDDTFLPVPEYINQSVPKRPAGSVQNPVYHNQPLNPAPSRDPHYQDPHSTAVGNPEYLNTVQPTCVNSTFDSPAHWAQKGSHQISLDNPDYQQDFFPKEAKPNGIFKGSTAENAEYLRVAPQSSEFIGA

Row | IC50 [1] | IC50 [2] | IC50 [3] | Structure (SMILES)
1 | 10.1 to 50 nM | < 10 nM | 10.1 to 50 nM | C[C@H](CN(C)C)Oc1cc(N2CCCS2(=O)=O)cc2ncnc(Nc3ccc4ncccc4c3F)c12 [Example 95, (R)-2-(5-((1-(dimethylamino)propan-2-yl)oxy)-4-((5-fluoroquinolin-6-yl)amino)quinazolin-7-yl)isothiazolidine 1,1-dioxide]
2 | 10.1 to 50 nM | < 10 nM | ≤ 10 nM | C[C@H](CN(C)C)Oc1cc(N2CCCC2=O)cc2ncnc(Nc3ccc4ncccc4c3F)c12 [Example 96, (R)-1-(5-((1-(dimethylamino)propan-2-yl)oxy)-4-((5-fluoroquinolin-6-yl)amino)quinazolin-7-yl)pyrrolidin-2-one]
3 | < 10 nM | < 10 nM | ≤ 10 nM | C[C@H](CN(C)C)Oc1cc(N2CC3(CCS3(=O)=O)C2)cc2ncnc(Nc3ccc4ncccc4c3F)c12 [Example 97, (R)-6-(5-((1-(dimethylamino)propan-2-yl)oxy)-4-((5-fluoroquinolin-6-yl)amino)quinazolin-7-yl)-1-thia-6-azaspiro[3.3]heptane 1,1-dioxide]
4 | 10.1 to 50 nM | 10.1 to 50 nM | 10.1 to 50 nM | CNC[C@@H](C)Oc1cc(-c2cnn(C)c2)cc2ncnc(Nc3ccc4ncccc4c3F)c12 [Example 100, (R)—N-(5-fluoroquinolin-6-yl)-7-(1-methyl-1H-pyrazol-4-yl)-5-((1-(methylamino)propan-2-yl)oxy)quinazolin-4-amine]
5 | 10.1 to 50 nM | < 10 nM | ≤ 10 nM | C[C@H](CN1CCC1)Oc1cc(-c2cnn(C)c2)cc2ncnc(Nc3ccc4ncccc4c3F)c12 [Example 101, (R)-5-((1-(azetidin-1-yl)propan-2-yl)oxy)-N-(5-fluoroquinolin-6-yl)-7-(1-methyl-1H-pyrazol-4-yl)quinazolin-4-amine]
6 | 10.1 to 50 nM | 10.1 to 50 nM | > 50.1 nM | CCNC[C@@H](C)Oc1cc(-c2cnn(C)c2)cc2ncnc(Nc3ccc4ncccc4c3F)c12 [Example 102, (R)-5-((1-(ethylamino)propan-2-yl)oxy)-N-(5-fluoroquinolin-6-yl)-7-(1-methyl-1H-pyrazol-4-yl)quinazolin-4-amine]
7 | 10.1 to 50 nM | < 10 nM | 10.1 to 50 nM | C[C@H](CN(C)C)Oc1cc(-c2cnn(C)c2)cc2ncnc(Nc3ccc4nccnc4c3)c12 [Example 103, (R)-5-((1-(dimethylamino)propan-2-yl)oxy)-7-(1-methyl-1H-pyrazol-4-yl)-N-(quinoxalin-6-yl)quinazolin-4-amine]
8 | 10.1 to 50 nM | < 10 nM | 10.1 to 50 nM | C[C@H](CN(C)C)Oc1cc(-c2cnn(C)c2)cc2ncnc(Nc3ccc4ncc(F)cc4c3F)c12 [Example 104, (R)—N-(3,5-difluoroquinolin-6-yl)-5-((1-(dimethylamino)propan-2-yl)oxy)-7-(1-methyl-1H-pyrazol-4-yl)quinazolin-4-amine]
9 | 10.1 to 50 nM | < 10 nM | 10.1 to 50 nM | Cc1ccc2cc(Nc3ncnc4cc(-c5cnn(C)c5)cc(O[C@H](C)CN(C)C)c34)ccc2n1 [Example 105, (R)-5-((1-(dimethylamino)propan-2-yl)oxy)-7-(1-methyl-1H-pyrazol-4-yl)-N-(2-methylquinolin-6-yl)quinazolin-4-amine]
10 | < 10 nM | < 10 nM | ≤ 10 nM | C[C@H](CN(C)C)Oc1cc(-c2cnn(C)c2)cc2ncnc(Nc3c(F)cc4ncccc4c3F)c12 [Example 106, (R)—N-(5,7-difluoroquinolin-6-yl)-5-((1-(dimethylamino)propan-2-yl)oxy)-7-(1-methyl-1H-pyrazol-4-yl)quinazolin-4-amine]
11 | 10.1 to 50 nM | < 10 nM | 10.1 to 50 nM | Cc1ccc2c(F)c(Nc3ncnc4cc(-c5cnn(C)c5)cc(O[C@H](C)CN(C)C)c34)ccc2n1 [Example 107, (R)-5-((1-(dimethylamino)propan-2-yl)oxy)-N-(5-fluoro-2-methylquinolin-6-yl)-7-(1-methyl-1H-pyrazol-4-yl)quinazolin-4-amine]
12 | 10.1 to 50 nM | < 10 nM | 10.1 to 50 nM | C[C@H](CN(C)C)Oc1cc(-c2cnn(C)c2)cc2ncnc(Nc3ccc4cccnc4c3F)c12 [Example 108, (R)-5-((1-(dimethylamino)propan-2-yl)oxy)-N-(8-fluoroquinolin-7-yl)-7-(1-methyl-1H-pyrazol-4-yl)quinazolin-4-amine]
13 | > 50.1 nM | 10.1 to 50 nM | > 50.1 nM | C[C@H](CN(C)C)Oc1cc(-c2cnn(C)c2)cc2ncnc(Nc3ccc4nccnc4c3F)c12 [Example 109, (R)-5-((1-(dimethylamino)propan-2-yl)oxy)-N-(5-fluoroquinoxalin-6-yl)-7-(1-methyl-1H-pyrazol-4-yl)quinazolin-4-amine]
14 | < 10 nM | < 10 nM | > 50.1 nM | C[C@H](CN(C)C)Oc1cc(-c2cnn(C)c2)cc2ncnc(Nc3cnc4ccccc4c3F)c12 [Example 110, (R)-5-((1-(dimethylamino)propan-2-yl)oxy)-N-(4-fluoroquinolin-3-yl)-7-(1-methyl-1H-pyrazol-4-yl)quinazolin-4-amine]
15 | < 10 nM | < 10 nM | ≤ 10 nM | C[C@@H](Oc1cc(-c2cnn(C)c2)cc2ncnc(Nc3ccc4ncccc4c3F)c12)C(CO)CO [Example 111, (R)-2-(1-((4-((5-fluoroquinolin-6-yl)amino)-7-(1-methyl-1H-pyrazol-4-yl)quinazolin-5-yl)oxy)ethyl)propane-1,3-diol]
16 | < 10 nM | < 10 nM | ≤ 10 nM | COCC(CO)[C@@H](C)Oc1cc(-c2cnn(C)c2)cc2ncnc(Nc3ccc4ncccc4c3F)c12 (stereo partly drawn) [Example 112, (3R)-3-((4-((5-fluoroquinolin-6-yl)amino)-7-(1-methyl-1H-pyrazol-4-yl)quinazolin-5-yl)oxy)-2-(methoxymethyl)butan-1-ol]
17 | < 10 nM | < 10 nM | ≤ 10 nM | C[C@@H](Oc1cc(-c2cnn(C)c2)cc2ncnc(Nc3ccc4ncccc4c3F)c12)C(CO)CCl (stereo partly drawn) [Example 113, (3R)-2-(chloromethyl)-3-((4-((5-fluoroquinolin-6-yl)amino)-7-(1-methyl-1H-pyrazol-4-yl)quinazolin-5-yl)oxy)butan-1-ol]
18 | < 10 nM | < 10 nM | ≤ 10 nM | C[C@H](CN(C)C1CC1)Oc1cc(-c2cnn(C)c2)cc2ncnc(Nc3ccc4ncccc4c3F)c12 [Example 114, (R)-5-((1-(cyclopropyl(methyl)amino)propan-2-yl)oxy)-N-(5-fluoroquinolin-6-yl)-7-(1-methyl-1H-pyrazol-4-yl)quinazolin-4-amine]
19 | < 10 nM | < 10 nM | ≤ 10 nM | C[C@H](CN(C)C1CCC1)Oc1cc(-c2cnn(C)c2)cc2ncnc(Nc3ccc4ncccc4c3F)c12 [Example 115, (R)-5-((1-(cyclobutyl(methyl)amino)propan-2-yl)oxy)-N-(5-fluoroquinolin-6-yl)-7-(1-methyl-1H-pyrazol-4-yl)quinazolin-4-amine]
20 | < 10 nM | < 10 nM | > 50.1 nM | C[C@H](CN(C)C)Oc1cc(-c2cnn(C)c2)cc2ncnc(Nc3ccc4ncc(O)cc4c3F)c12 [Example 116, (R)-6-((5-((1-(dimethylamino)propan-2-yl)oxy)-7-(1-methyl-1H-pyrazol-4-yl)quinazolin-4-yl)amino)-5-fluoroquinolin-3-ol]
21 | 10.1 to 50 nM | < 10 nM | 10.1 to 50 nM | CCn1cc(-c2cc(OC3CCN(C)CC3)c3c(Nc4ccc5ncccc5c4F)ncnc3c2)c(OC)n1 [Example 117, 7-(1-ethyl-3-methoxy-1H-pyrazol-4-yl)-N-(5-fluoroquinolin-6-yl)-5-((1-methylpiperidin-4-yl)oxy)quinazolin-4-amine]
22 | < 10 nM | < 10 nM | ≤ 10 nM | C[C@H](CN(C)C)Oc1cc(-c2cn(C)nc2OC(F)F)cc2ncnc(Nc3ccc4ncccc4c3F)c12 [Example 118, (R)-7-(3-(difluoromethoxy)-1-methyl-1H-pyrazol-4-yl)-5-((1-(dimethylamino)propan-2-yl)oxy)-N-(5-fluoroquinolin-6-yl)quinazolin-4-amine]
23 | < 10 nM | < 10 nM | ≤ 10 nM | C[C@H](CN(C)C)Oc1cc(-c2cnn(C)c2)cc2ncnc(Nc3cc(O)c4ncccc4c3F)c12 [Example 122, (R)-6-((5-((1-(dimethylamino)propan-2-yl)oxy)-7-(1-methyl-1H-pyrazol-4-yl)quinazolin-4-yl)amino)-5-fluoroquinolin-8-ol]
24 | > 50.1 nM | 10.1 to 50 nM | > 50.1 nM | C[C@H](CN(C)C)Oc1cc(-c2cnn(C)c2)cc2ncnc(Nc3ccc4nc(O)ccc4c3F)c12 [Example 130, (R)-6-((5-((1-(dimethylamino)propan-2-yl)oxy)-7-(1-methyl-1H-pyrazol-4-yl)quinazolin-4-yl)amino)-5-fluoroquinolin-2-ol]
25 | < 10 nM | < 10 nM | ≤ 10 nM | C[C@H](CO)Oc1cc(-c2cnn(C)c2)cc2ncnc(Nc3ccc4ncccc4c3F)c12 [Example 135, (R)-2-((4-((5-fluoroquinolin-6-yl)amino)-7-(1-methyl-1H-pyrazol-4-yl)quinazolin-5-yl)oxy)propan-1-ol]
26 | < 10 nM | < 10 nM | ≤ 10 nM | CC(Oc1cc(-c2cnn(C)c2)cc2ncnc(Nc3ccc4ncccc4c3F)c12)C1(N(C)C)COC1 (stereo not drawn) [Example 142, 5-(1-(3-(dimethylamino)oxetan-3-yl)ethoxy)-N-(5-fluoroquinolin-6-yl)-7-(1-methyl-1H-pyrazol-4-yl)quinazolin-4-amine]
